Laboratory results from ChEMBL document CHEMBL5715954, “Silencing c-Myc translation as a therapeutic strategy through targeting PI3Kδ and CK1ε in hematological malignancies” (Blood, 2017).

Legend:
Parameters in all cases: scale not given: the % may be the effect or the level left
[1] = target: T1, Serine/threonine-protein kinase haspin (Homo sapiens) (UniProt Q8TF76); assay: Inhibition of human Haspin assessed as enzyme activity at 1 uM using histone H3 as substrate preincubated for 20 mins followed by [gamma-33P]-ATP addition and measured after 120 mins by radiometric Hot-SpotSM Kinase assay relative to control
T1 sequence (whole entry): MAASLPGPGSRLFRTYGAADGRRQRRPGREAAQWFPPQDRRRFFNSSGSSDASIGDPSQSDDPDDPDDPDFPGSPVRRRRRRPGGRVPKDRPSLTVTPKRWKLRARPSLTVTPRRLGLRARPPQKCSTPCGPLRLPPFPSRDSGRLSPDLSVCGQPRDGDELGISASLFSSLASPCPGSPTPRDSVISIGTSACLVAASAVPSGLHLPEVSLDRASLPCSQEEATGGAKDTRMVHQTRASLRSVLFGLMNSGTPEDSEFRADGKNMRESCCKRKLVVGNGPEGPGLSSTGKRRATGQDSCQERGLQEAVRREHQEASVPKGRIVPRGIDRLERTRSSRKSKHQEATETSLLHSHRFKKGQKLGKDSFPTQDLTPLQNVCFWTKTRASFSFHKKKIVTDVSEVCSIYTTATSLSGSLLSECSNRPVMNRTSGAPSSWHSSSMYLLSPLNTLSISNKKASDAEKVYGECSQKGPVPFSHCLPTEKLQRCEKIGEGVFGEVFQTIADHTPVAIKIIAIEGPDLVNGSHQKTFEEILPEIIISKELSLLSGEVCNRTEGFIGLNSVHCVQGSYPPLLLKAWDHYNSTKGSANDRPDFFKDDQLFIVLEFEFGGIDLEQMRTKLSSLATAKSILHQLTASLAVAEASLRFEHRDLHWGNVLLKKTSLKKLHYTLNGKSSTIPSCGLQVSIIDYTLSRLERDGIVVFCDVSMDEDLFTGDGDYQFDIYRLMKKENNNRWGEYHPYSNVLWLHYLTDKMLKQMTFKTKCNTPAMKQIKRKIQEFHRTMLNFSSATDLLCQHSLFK

[2] = target: T2, SNF-related serine/threonine-protein kinase (Homo sapiens) (UniProt Q9NRH2); assay: Inhibition of human SNRK assessed as enzyme activity at 1 uM using myelin basic protein as substrate preincubated for 20 mins followed by [gamma-33P]-ATP addition and measured after 120 mins by radiometric Hot-SpotSM Kinase assay relative to control
T2 sequence (whole entry): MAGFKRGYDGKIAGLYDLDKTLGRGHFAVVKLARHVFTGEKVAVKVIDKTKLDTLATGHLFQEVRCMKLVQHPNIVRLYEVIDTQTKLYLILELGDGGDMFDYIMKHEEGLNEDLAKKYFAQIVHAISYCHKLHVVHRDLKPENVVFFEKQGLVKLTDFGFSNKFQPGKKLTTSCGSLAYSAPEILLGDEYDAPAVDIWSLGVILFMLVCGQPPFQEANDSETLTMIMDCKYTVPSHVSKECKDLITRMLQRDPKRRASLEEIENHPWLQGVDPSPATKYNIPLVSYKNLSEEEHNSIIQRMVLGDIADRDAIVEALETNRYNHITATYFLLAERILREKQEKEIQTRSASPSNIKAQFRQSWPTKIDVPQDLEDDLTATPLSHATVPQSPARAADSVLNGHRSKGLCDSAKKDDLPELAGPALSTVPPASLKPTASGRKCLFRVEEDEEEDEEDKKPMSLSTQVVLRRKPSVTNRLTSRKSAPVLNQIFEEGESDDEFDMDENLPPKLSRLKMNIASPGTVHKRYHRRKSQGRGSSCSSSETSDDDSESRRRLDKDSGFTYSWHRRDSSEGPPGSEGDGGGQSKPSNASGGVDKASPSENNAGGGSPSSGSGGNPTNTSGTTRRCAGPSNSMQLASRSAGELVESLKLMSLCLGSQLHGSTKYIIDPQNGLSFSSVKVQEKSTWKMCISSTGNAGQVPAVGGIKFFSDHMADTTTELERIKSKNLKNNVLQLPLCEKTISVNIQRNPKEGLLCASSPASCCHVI

[3] = target: Serine/threonine-protein kinase/endoribonuclease IRE1 (Homo sapiens) (UniProt O75460); assay: Inhibition of human ERN1 assessed as enzyme activity at 1 uM using myelin basic protein as substrate preincubated for 20 mins followed by [gamma-33P]-ATP addition and measured after 120 mins by radiometric Hot-SpotSM Kinase assay relative to control
[4] = target: Mitogen-activated protein kinase kinase kinase 1 (Homo sapiens) (UniProt Q13233); assay: Inhibition of human MEKK1 assessed as enzyme activity at 1 uM using myelin basic protein as substrate preincubated for 20 mins followed by [gamma-33P]-ATP addition and measured after 120 mins by radiometric Hot-SpotSM Kinase assay relative to control
[5] = target: Serine/threonine-protein kinase Nek7 (Homo sapiens) (UniProt Q8TDX7); assay: Inhibition of human NEK7 assessed as enzyme activity at 1 uM using casein as substrate preincubated for 20 mins followed by [gamma-33P]-ATP addition and measured after 120 mins by radiometric Hot-SpotSM Kinase assay relative to control
[6] = target: T3, cGMP-dependent protein kinase 1 (Homo sapiens) (UniProt Q13976); assay: Inhibition of human PKG1a assessed as enzyme activity at 1 uM using LRRASLG as substrate preincubated for 20 mins followed by [gamma-33P]-ATP addition and measured after 120 mins by radiometric Hot-SpotSM Kinase assay relative to control
T3 sequence (whole entry): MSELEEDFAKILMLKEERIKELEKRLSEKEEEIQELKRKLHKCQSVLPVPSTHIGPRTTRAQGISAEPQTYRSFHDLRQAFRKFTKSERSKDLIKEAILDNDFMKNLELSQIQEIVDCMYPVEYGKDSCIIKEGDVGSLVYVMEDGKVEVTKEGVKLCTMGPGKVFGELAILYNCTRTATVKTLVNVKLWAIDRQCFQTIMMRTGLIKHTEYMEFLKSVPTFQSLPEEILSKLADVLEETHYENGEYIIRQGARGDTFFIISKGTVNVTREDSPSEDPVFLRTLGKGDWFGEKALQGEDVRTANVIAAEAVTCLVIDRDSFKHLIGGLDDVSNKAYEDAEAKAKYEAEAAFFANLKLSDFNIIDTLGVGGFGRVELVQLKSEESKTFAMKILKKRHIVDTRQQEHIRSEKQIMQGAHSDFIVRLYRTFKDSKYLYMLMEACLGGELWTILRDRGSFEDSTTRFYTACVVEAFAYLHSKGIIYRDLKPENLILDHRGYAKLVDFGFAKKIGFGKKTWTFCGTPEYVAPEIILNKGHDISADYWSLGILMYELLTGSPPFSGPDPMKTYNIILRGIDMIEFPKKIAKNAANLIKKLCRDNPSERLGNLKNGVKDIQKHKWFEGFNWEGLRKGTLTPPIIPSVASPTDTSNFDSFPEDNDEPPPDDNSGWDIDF

[7] = target: Mitogen-activated protein kinase kinase kinase 11 (Homo sapiens) (UniProt Q16584); assay: Inhibition of human MLK3 assessed as enzyme activity at 1 uM using myelin basic protein as substrate preincubated for 20 mins followed by [gamma-33P]-ATP addition and measured after 120 mins by radiometric Hot-SpotSM Kinase assay relative to control
Sequence of Mitogen-activated protein kinase kinase kinase 11 (Homo sapiens) (Q16584 whole entry, looked up): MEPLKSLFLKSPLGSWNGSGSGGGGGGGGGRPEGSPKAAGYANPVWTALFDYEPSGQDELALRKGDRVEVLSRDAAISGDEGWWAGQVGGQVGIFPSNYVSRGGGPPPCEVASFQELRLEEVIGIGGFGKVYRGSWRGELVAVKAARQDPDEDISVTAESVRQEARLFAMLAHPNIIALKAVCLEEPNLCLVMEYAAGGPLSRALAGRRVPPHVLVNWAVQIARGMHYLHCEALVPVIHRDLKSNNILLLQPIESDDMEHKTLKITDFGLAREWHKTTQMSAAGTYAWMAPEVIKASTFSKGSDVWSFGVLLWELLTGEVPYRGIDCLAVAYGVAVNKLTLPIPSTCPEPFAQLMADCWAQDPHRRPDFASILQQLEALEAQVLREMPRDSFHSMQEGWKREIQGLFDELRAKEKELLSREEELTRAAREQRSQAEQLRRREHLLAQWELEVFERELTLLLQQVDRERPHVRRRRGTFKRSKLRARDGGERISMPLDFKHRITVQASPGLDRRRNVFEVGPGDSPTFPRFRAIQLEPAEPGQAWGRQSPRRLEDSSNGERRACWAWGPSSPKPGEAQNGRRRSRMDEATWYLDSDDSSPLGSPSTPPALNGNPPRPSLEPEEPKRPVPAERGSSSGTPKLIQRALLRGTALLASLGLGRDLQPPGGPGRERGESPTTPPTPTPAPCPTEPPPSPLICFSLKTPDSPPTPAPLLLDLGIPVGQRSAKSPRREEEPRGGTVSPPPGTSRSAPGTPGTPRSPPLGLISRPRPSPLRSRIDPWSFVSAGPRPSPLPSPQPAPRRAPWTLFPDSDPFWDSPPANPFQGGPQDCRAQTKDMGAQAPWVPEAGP

Sequence of Serine/threonine-protein kinase Nek7 (Homo sapiens) (Q8TDX7 whole entry, looked up): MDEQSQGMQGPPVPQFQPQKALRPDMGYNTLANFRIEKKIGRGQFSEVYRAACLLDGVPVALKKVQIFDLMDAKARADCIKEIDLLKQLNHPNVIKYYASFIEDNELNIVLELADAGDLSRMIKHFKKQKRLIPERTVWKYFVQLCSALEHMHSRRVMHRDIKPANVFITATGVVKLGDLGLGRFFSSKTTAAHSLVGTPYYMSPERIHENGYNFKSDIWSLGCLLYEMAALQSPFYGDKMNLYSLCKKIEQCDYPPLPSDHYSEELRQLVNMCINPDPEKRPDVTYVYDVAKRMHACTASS
Sequence of Mitogen-activated protein kinase kinase kinase 1 (Homo sapiens) (Q13233 whole entry): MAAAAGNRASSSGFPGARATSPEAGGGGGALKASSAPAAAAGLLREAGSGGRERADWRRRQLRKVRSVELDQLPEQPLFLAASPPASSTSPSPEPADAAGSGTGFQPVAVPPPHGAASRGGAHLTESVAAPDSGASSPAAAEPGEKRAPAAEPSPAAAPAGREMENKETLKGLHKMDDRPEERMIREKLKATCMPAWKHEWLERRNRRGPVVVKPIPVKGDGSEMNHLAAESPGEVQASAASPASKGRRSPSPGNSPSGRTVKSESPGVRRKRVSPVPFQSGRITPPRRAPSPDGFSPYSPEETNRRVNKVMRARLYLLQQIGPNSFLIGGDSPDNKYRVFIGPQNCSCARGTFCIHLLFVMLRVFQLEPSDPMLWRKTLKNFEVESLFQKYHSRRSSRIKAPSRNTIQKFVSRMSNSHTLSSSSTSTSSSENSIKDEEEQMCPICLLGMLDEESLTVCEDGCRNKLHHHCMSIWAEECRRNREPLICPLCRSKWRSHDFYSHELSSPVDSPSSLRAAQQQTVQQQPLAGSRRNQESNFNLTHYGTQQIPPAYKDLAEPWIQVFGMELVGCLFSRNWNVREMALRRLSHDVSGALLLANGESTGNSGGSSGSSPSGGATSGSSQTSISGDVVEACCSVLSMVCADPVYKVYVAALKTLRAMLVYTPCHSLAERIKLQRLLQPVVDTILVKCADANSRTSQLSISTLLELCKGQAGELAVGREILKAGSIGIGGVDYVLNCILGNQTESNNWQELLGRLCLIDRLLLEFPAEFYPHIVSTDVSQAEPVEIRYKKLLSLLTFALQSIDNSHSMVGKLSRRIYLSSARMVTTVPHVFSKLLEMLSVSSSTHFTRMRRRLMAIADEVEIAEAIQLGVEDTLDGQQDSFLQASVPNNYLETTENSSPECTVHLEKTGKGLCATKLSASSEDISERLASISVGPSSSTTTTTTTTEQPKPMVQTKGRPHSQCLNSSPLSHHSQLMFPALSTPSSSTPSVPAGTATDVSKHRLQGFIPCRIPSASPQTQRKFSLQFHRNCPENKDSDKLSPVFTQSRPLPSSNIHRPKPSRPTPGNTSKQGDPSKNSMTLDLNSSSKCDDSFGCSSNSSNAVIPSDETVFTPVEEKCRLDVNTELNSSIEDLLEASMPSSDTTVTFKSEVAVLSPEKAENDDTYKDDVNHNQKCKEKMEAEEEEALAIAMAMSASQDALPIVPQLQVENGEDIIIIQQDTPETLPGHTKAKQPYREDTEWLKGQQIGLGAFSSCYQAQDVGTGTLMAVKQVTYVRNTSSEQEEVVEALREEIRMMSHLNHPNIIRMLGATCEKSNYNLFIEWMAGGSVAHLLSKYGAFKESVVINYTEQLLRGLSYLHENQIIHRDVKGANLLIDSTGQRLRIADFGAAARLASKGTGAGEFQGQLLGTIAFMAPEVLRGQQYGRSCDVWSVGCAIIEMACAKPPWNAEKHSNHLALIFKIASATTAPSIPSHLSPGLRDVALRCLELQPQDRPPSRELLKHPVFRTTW
Sequence of Serine/threonine-protein kinase/endoribonuclease IRE1 (Homo sapiens) (O75460 19-977 limits assumed): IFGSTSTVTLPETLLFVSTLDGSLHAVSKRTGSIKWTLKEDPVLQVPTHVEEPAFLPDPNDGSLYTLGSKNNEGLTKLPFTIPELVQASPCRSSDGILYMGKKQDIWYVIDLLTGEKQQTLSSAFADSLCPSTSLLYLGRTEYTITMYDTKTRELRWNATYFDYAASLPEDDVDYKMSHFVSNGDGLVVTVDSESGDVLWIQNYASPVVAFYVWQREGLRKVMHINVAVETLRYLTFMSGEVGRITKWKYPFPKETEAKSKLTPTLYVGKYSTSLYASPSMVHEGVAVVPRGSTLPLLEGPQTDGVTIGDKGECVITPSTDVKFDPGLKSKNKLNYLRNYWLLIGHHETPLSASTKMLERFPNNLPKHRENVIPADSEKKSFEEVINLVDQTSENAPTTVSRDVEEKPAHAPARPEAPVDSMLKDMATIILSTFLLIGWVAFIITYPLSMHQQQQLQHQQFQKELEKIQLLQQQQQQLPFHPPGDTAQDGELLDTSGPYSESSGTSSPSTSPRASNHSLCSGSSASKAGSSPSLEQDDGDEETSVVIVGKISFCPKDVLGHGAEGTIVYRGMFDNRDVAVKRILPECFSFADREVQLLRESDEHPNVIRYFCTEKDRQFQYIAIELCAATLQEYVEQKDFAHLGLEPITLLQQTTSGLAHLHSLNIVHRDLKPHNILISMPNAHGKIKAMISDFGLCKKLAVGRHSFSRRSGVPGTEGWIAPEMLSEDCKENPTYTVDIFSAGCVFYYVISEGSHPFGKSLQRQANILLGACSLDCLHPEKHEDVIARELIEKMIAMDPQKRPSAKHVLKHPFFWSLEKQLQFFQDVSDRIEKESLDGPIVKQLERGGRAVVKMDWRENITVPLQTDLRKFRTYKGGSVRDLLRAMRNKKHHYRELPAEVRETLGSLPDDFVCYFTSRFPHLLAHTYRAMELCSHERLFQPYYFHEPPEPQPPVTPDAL

Structure (SMILES): CC[C@H](Nc1ncnc2[nH]cnc12)c1nc2cccc(F)c2c(=O)n1-c1ccccc1
- Activity [1]: 95.5%
- Activity [2]: 102%
- Activity [3]: 96.4%
- Activity [4]: 101%
- Activity [5]: 97.3%
- Activity [6]: 105%
- Activity [7]: 79.8%

Structure (SMILES): C[C@H](Nc1ncnc2nc[nH]c12)c1cc2cccc(Cl)c2c(=O)n1-c1ccccc1
- Activity [1]: 96.5%
- Activity [2]: 96.6%
- Activity [3]: 97.3%
- Activity [4]: 107%
- Activity [5]: 100%
- Activity [6]: 109%
- Activity [7]: 75.1%

Structure (SMILES): CC(C)Oc1ccc(-c2nn([C@@H](C)c3oc4ccc(F)cc4c(=O)c3-c3cccc(F)c3)c3ncnc(N)c23)cc1F [UMBRALISIB]
- Activity [1]: 93.7%
- Activity [2]: 102%
- Activity [3]: 91.6%
- Activity [4]: 101%
- Activity [5]: 85.4%
- Activity [6]: 105%
- Activity [7]: 80.9%
